Values of other authors, collected in patent US20220331213A1, “ANTIMICROBIAL COMPOSITIONS COMPRISING A BENZOIC ACID ANALOG AND ACID PH BUFFERS” (eHealth Nexus LLC, priority 2021, published 2022).

Key:
[1] = for pKa (acid dissociation constant): aqueous pKa; for pK2 / pK1: aqueous; for pK2: second dissociation of di-/polycarboxylic acid; for pK1: first dissociation of di-/polycarboxylic acid
rhinovirus = conditions: 2% salicylic acid on skin

O=C(O)c1cccnc1 [nicotinic acid]
pKa (acid dissociation constant) [1]: 4.82

O=C(O)CCCCC(=O)O [adipic acid]
pK2 [1]: about 5.4

O=C(O)CCCC(=O)O [glutaric acid]
pKa (acid dissociation constant) [1]: 3.76 | pK1 [1]: about 4.3 | pK2 [1]: about 5.4

O=C(O)[C@H](O)[C@@H](O)[C@H](O)[C@H](O)CO [gluconic acid]
pKa (acid dissociation constant) [1]: 3.85

O=C(O)CO [glycolic acid]
pKa (acid dissociation constant) [1]: ~3.8

O=C(O)c1ccccc1O [salicylic acid]
residual anti-rhinovirus activity on the skin (rhinovirus): diminish over 3 hours

O=C(O)CC(O)(CC(=O)O)C(=O)O [citric acid]
pK1 [1]: about 2.9
